Patent publication US9040712B2, “Thiadiazole analogs thereof and methods for treating SMN-deficiency-related-conditions” (NOVARTIS AG, priority 2013, dated 2015)
Counter-ions that a name gives are not always drawn.

Each compound was assayed on SMN protein (assay: cellular SMN ELISA (SMN protein elevation)). Conditions: myoblast cell line derived from SMNdelta7 mouse model; 24 hours compound treatment; concentration range 100 pM-10 uM.
Assay type: cell-based
How it was run: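 Myoblasts derived from the SMNdelta7 mouse model, 3000 cells/well, treated with compound (100 pM–10 uM) for 24 h, then lysed in modified RIPA buffer. SMN protein quantified by sandwich ELISA (anti-SMN mAb capture, rabbit polyclonal detection, HRP/TMB, 450 nm). Results given as fold activation over DMSO and EC50.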

Point of comparison: CN(c1nnc(-c2ccc(-c3cn[nH]c3)cc2O)s1)C1CC(C)(C)NC(C)(C)C1 [Example 93, 2-(5-(methyl(2,2,6,6-tetramethylpiperidin-4-yl)amino)-1,3,4-thiadiazol-2-yl)-5-(1H-pyrazol-4-yl)phenol], EC50 0.404 µM. Against it:
- COc1cc(-c2cnn(C)c2)ccc1-c1nnc(N2CC3(CCNCC3)C2)s1 [Example 86, 2-(2-methoxy-4-(1-methyl-1H-pyrazol-4-yl)phenyl)-5-(2,7-diazaspiro[3.5]nonan-2-yl)-1,3,4-thiadiazole] — 2.7-fold lower, 0.152 µM
- CN(c1nnc(-c2ccc(-n3cccn3)cc2O)s1)C1CC(C)(C)NC(C)(C)C1 [Example 87, 2-(5-(methyl(2,2,6,6-tetramethylpiperidin-4-yl)amino)-1,3,4-thiadiazol-2-yl)-5-(1H-pyrazol-1-yl)phenol] — 2.4-fold lower, 0.171 µM
- CN(c1nnc(-c2ccc(-c3ccc(=O)[nH]c3)cc2Cl)s1)C1CC(C)(C)NC(C)(C)C1 [Example 88, 5-(3-chloro-4-(5-(methyl(2,2,6,6-tetramethylpiperidin-4-yl)amino)-1,3,4-thiadiazol-2-yl)phenyl)pyridin-2(1H)-one] — 2.5-fold lower, 0.16 µM
- CNc1ccn(-c2ccc(-c3nnc(N(C)C4CC(C)(C)NC(C)(C)C4)s3)c(O)c2)n1 [Example 89, 2-(5-(methyl(2,2,6,6-tetramethylpiperidin-4-yl)amino)-1,3,4-thiadiazol-2-yl)-5-(3-(methylamino)-1H-pyrazol-1-yl)phenol] — 3.8-fold lower, 0.106 µM
- CN(c1nnc(-c2c(O)cc(-c3cn[nH]c3)cc2F)s1)C1CC(C)(C)NC(C)(C)C1 [Example 90, 3-fluoro-2-(5-(methyl(2,2,6,6-tetramethylpiperidin-4-yl)amino)-1,3,4-thiadiazol-2-yl)-5-(1H-pyrazol-4-yl)phenol] — 67-fold lower, 0.006 µM
- CN(c1nnc(-c2cc3c(cc2O)C(=O)CC3)s1)C1CC(C)(C)NC(C)(C)C1 [Example 92, 6-hydroxy-5-(5-(methyl(2,2,6,6-tetramethylpiperidin-4-yl)amino)-1,3,4-thiadiazol-2-yl)-2,3-dihydro-1H-inden-1-one] — 4.4-fold lower, 0.091 µM
- Cn1cc(-c2ccc(-c3nnc(N4CC5(CCCNC5)C4)s3)c(O)c2)cn1 [Example 94, 2-(5-(2,6-diazaspiro[3.5]nonan-2-yl)-1,3,4-thiadiazol-2-yl)-5-(1-methyl-1H-pyrazol-4-yl)phenol] — 2.6-fold lower, 0.155 µM
- Cn1cc(-c2ccc(-c3nnc(N4CC5(CCNCC5)C4)s3)c(O)c2)cn1 [Example 95, 2-(5-(2,7-diazaspiro[3.5]nonan-2-yl)-1,3,4-thiadiazol-2-yl)-5-(1-methyl-1H-pyrazol-4-yl)phenol] — 7.6-fold lower, 0.053 µM
- Oc1cc(-c2cn[nH]c2)cc(F)c1-c1nnc(N2C[C@H]3CNC[C@H]3C2)s1 [Example 96, 3-fluoro-2-(5-((3aR,6aS)-hexahydropyrrolo[3,4-c]pyrrol-2(1H)-yl)-1,3,4-thiadiazol-2-yl)-5-(1H-pyrazol-4-yl)phenol•Di-hydrochloride salt] — 45-fold lower, 0.009 µM
- COc1cc(-n2cccn2)ccc1-c1nnc(CC2CC(C)(C)NC(C)(C)C2)s1 [Example 98, 2-(2-methoxy-4-(1H-pyrazol-1-yl)phenyl)-5-((2,2,6,6-tetramethylpiperidin-4-yl)methyl)-1,3,4-thiadiazole] — 2-fold higher, 0.818 µM
- COc1c(-c2nnc(N(C)C3CC(C)(C)NC(C)(C)C3)s2)c(=O)n(C)c2ccccc12 [Example 101, 4-methoxy-1-methyl-3-(5-(methyl(2,2,6,6-tetramethylpiperidin-4-yl)amino)-1,3,4-thiadiazol-2-yl)quinolin-2(1H)-one] — 1.8-fold higher, 0.742 µM
- CN(c1nnc(-c2c(O)c3ccccc3n(C)c2=O)s1)C1CC(C)(C)NC(C)(C)C1 [Example 102, 4-hydroxy-1-methyl-3-(5-(methyl(2,2,6,6-tetramethylpiperidin-4-yl)amino)-1,3,4-thiadiazol-2-yl)quinolin-2(1H)-one] — 17-fold lower, 0.024 µM
- CN(c1nnc(-c2cc3ccccc3[nH]c2=O)s1)C1CC(C)(C)NC(C)(C)C1 [Example 103, 3-(5-(methyl(2,2,6,6-tetramethylpiperidin-4-yl)amino)-1,3,4-thiadiazol-2-yl)quinolin-2(1H)-one] — 2.5-fold lower, 0.161 µM
- CN(c1nnc(-c2cc3ccccc3n(C)c2=O)s1)C1CC(C)(C)NC(C)(C)C1 [Example 104, 1-methyl-3-(5-(methyl(2,2,6,6-tetramethylpiperidin-4-yl)amino)-1,3,4-thiadiazol-2-yl)quinolin-2(1H)-one] — 4-fold lower, 0.1 µM
- Clc1cc(-c2cn[nH]c2)ccc1-c1nnc(N2C[C@H]3CNC[C@H]3C2)s1 [Example 105, 2-(2-chloro-4-(1H-pyrazol-4-yl)phenyl)-5-((3aR,6aS)-hexahydropyrrolo[3,4-c]pyrrol-2(1H)-yl)-1,3,4-thiadiazole Hydrochloride Salt] — 2.2-fold lower, 0.181 µM
- Clc1cc(-c2cn[nH]c2)ccc1-c1nnc(N2CCC3(CCCNC3)C2)s1 (stereo not drawn) [Example 106, 2-(2-chloro-4-(1H-pyrazol-4-yl)phenyl)-5-(2,7-diazaspiro[4.5]decan-2-yl)-1,3,4-thiadiazole•Hydrochloride Salt] — 4.1-fold higher, 1.66 µM
- OC[C@H]1CN(c2nnc(-c3ccc(-c4cn[nH]c4)cc3Cl)s2)CCN1 [Example 107, (R)-(4-(5-(2-chloro-4-(1H-pyrazol-4-yl)phenyl)-1,3,4-thiadiazol-2-yl)piperazin-2-yl)methanol•Hydrochloride Salt] — 11-fold higher, 4.54 µM
- CN(c1nnc(-c2cc3cc(C#N)ccc3s2)s1)C1CC(C)(C)NC(C)(C)C1 [Example 108, 2-(5-(methyl(2,2,6,6-tetramethylpiperidin-4-yl)amino)-1,3,4-thiadiazol-2-yl)benzo[b]thiophene-5-carbonitrile] — within 1.5-fold, 0.539 µM
- CN(c1nnc(-c2sc3ccccc3c2Cl)s1)C1CC(C)(C)NC(C)(C)C1 [Example 109, 5-(3-chlorobenzo[b]thiophen-2-yl)-N-methyl-N-(2,2,6,6-tetramethylpiperidin-4-yl)-1,3,4-thiadiazol-2-amine] — within 1.5-fold, 0.534 µM

Point of comparison: COc1c(-c2nnc(N(C)C3CC(C)(C)NC(C)(C)C3)s2)c(=O)n(C)c2ccccc12 [Example 101, 4-methoxy-1-methyl-3-(5-(methyl(2,2,6,6-tetramethylpiperidin-4-yl)amino)-1,3,4-thiadiazol-2-yl)quinolin-2(1H)-one], “SMN Activity Fold (fold activation over DMSO control)” value 2.51 fold. Against it:
- COc1cc(-c2cnn(C)c2)ccc1-c1nnc(N2CC3(CCNCC3)C2)s1 [Example 86, 2-(2-methoxy-4-(1-methyl-1H-pyrazol-4-yl)phenyl)-5-(2,7-diazaspiro[3.5]nonan-2-yl)-1,3,4-thiadiazole] — lower, 2.33 fold
- CN(c1nnc(-c2ccc(-n3cccn3)cc2O)s1)C1CC(C)(C)NC(C)(C)C1 [Example 87, 2-(5-(methyl(2,2,6,6-tetramethylpiperidin-4-yl)amino)-1,3,4-thiadiazol-2-yl)-5-(1H-pyrazol-1-yl)phenol] — higher, 2.76 fold
- CN(c1nnc(-c2ccc(-c3ccc(=O)[nH]c3)cc2Cl)s1)C1CC(C)(C)NC(C)(C)C1 [Example 88, 5-(3-chloro-4-(5-(methyl(2,2,6,6-tetramethylpiperidin-4-yl)amino)-1,3,4-thiadiazol-2-yl)phenyl)pyridin-2(1H)-one] — lower, 2.22 fold
- CNc1ccn(-c2ccc(-c3nnc(N(C)C4CC(C)(C)NC(C)(C)C4)s3)c(O)c2)n1 [Example 89, 2-(5-(methyl(2,2,6,6-tetramethylpiperidin-4-yl)amino)-1,3,4-thiadiazol-2-yl)-5-(3-(methylamino)-1H-pyrazol-1-yl)phenol] — higher, 2.85 fold
- CN(c1nnc(-c2c(O)cc(-c3cn[nH]c3)cc2F)s1)C1CC(C)(C)NC(C)(C)C1 [Example 90, 3-fluoro-2-(5-(methyl(2,2,6,6-tetramethylpiperidin-4-yl)amino)-1,3,4-thiadiazol-2-yl)-5-(1H-pyrazol-4-yl)phenol] — higher, 2.57 fold
- CN(c1nnc(-c2c(O)cc(-c3cn[nH]c3)c(F)c2F)s1)C1CC(C)(C)NC(C)(C)C1 [Example 91, 3,4-difluoro-2-(5-(methyl(2,2,6,6-tetramethylpiperidin-4-yl)amino)-1,3,4-thiadiazol-2-yl)-5-(1H-pyrazol-4-yl)phenol] — higher, 2.67 fold
- CN(c1nnc(-c2cc3c(cc2O)C(=O)CC3)s1)C1CC(C)(C)NC(C)(C)C1 [Example 92, 6-hydroxy-5-(5-(methyl(2,2,6,6-tetramethylpiperidin-4-yl)amino)-1,3,4-thiadiazol-2-yl)-2,3-dihydro-1H-inden-1-one] — lower, 2.50 fold
- CN(c1nnc(-c2ccc(-c3cn[nH]c3)cc2O)s1)C1CC(C)(C)NC(C)(C)C1 [Example 93, 2-(5-(methyl(2,2,6,6-tetramethylpiperidin-4-yl)amino)-1,3,4-thiadiazol-2-yl)-5-(1H-pyrazol-4-yl)phenol] — lower, 2.47 fold
- Cn1cc(-c2ccc(-c3nnc(N4CC5(CCCNC5)C4)s3)c(O)c2)cn1 [Example 94, 2-(5-(2,6-diazaspiro[3.5]nonan-2-yl)-1,3,4-thiadiazol-2-yl)-5-(1-methyl-1H-pyrazol-4-yl)phenol] — higher, 2.59 fold
- Cn1cc(-c2ccc(-c3nnc(N4CC5(CCNCC5)C4)s3)c(O)c2)cn1 [Example 95, 2-(5-(2,7-diazaspiro[3.5]nonan-2-yl)-1,3,4-thiadiazol-2-yl)-5-(1-methyl-1H-pyrazol-4-yl)phenol] — lower, 2.44 fold
- Oc1cc(-c2cn[nH]c2)cc(F)c1-c1nnc(N2C[C@H]3CNC[C@H]3C2)s1 [Example 96, 3-fluoro-2-(5-((3aR,6aS)-hexahydropyrrolo[3,4-c]pyrrol-2(1H)-yl)-1,3,4-thiadiazol-2-yl)-5-(1H-pyrazol-4-yl)phenol•Di-hydrochloride salt] — higher, 2.85 fold
- CN(c1nnc(-c2c(O)cc(-c3cn[nH]c3)cc2Cl)s1)C1CC(C)(C)NC(C)(C)C1 [Example 97, 3-chloro-2-(5-(methyl(2,2,6,6-tetramethylpiperidin-4-yl)amino)-1,3,4-thiadiazol-2-yl)-5-(1H-pyrazol-4-yl)phenol] — lower, 2.45 fold
- COc1cc(-n2cccn2)ccc1-c1nnc(CC2CC(C)(C)NC(C)(C)C2)s1 [Example 98, 2-(2-methoxy-4-(1H-pyrazol-1-yl)phenyl)-5-((2,2,6,6-tetramethylpiperidin-4-yl)methyl)-1,3,4-thiadiazole] — lower, 2.19 fold
- CN(c1nnc(-c2c(O)c3ccccc3n(C)c2=O)s1)C1CC(C)(C)NC(C)(C)C1 [Example 102, 4-hydroxy-1-methyl-3-(5-(methyl(2,2,6,6-tetramethylpiperidin-4-yl)amino)-1,3,4-thiadiazol-2-yl)quinolin-2(1H)-one] — higher, 2.71 fold
- CN(c1nnc(-c2cc3ccccc3[nH]c2=O)s1)C1CC(C)(C)NC(C)(C)C1 [Example 103, 3-(5-(methyl(2,2,6,6-tetramethylpiperidin-4-yl)amino)-1,3,4-thiadiazol-2-yl)quinolin-2(1H)-one] — lower, 2.47 fold
- CN(c1nnc(-c2cc3ccccc3n(C)c2=O)s1)C1CC(C)(C)NC(C)(C)C1 [Example 104, 1-methyl-3-(5-(methyl(2,2,6,6-tetramethylpiperidin-4-yl)amino)-1,3,4-thiadiazol-2-yl)quinolin-2(1H)-one] — higher, 2.76 fold
- Clc1cc(-c2cn[nH]c2)ccc1-c1nnc(N2C[C@H]3CNC[C@H]3C2)s1 [Example 105, 2-(2-chloro-4-(1H-pyrazol-4-yl)phenyl)-5-((3aR,6aS)-hexahydropyrrolo[3,4-c]pyrrol-2(1H)-yl)-1,3,4-thiadiazole Hydrochloride Salt] — lower, 2.21 fold
- Clc1cc(-c2cn[nH]c2)ccc1-c1nnc(N2CCC3(CCCNC3)C2)s1 (stereo not drawn) [Example 106, 2-(2-chloro-4-(1H-pyrazol-4-yl)phenyl)-5-(2,7-diazaspiro[4.5]decan-2-yl)-1,3,4-thiadiazole•Hydrochloride Salt] — lower, 2.50 fold
- OC[C@H]1CN(c2nnc(-c3ccc(-c4cn[nH]c4)cc3Cl)s2)CCN1 [Example 107, (R)-(4-(5-(2-chloro-4-(1H-pyrazol-4-yl)phenyl)-1,3,4-thiadiazol-2-yl)piperazin-2-yl)methanol•Hydrochloride Salt] — lower, 2.06 fold
- CN(c1nnc(-c2cc3cc(C#N)ccc3s2)s1)C1CC(C)(C)NC(C)(C)C1 [Example 108, 2-(5-(methyl(2,2,6,6-tetramethylpiperidin-4-yl)amino)-1,3,4-thiadiazol-2-yl)benzo[b]thiophene-5-carbonitrile] — higher, 2.72 fold
- CN(c1nnc(-c2sc3ccccc3c2Cl)s1)C1CC(C)(C)NC(C)(C)C1 [Example 109, 5-(3-chlorobenzo[b]thiophen-2-yl)-N-methyl-N-(2,2,6,6-tetramethylpiperidin-4-yl)-1,3,4-thiadiazol-2-amine] — higher, 2.75 fold
